Read-outs that look alike come from different tables or passages of the source. Square brackets hold non-standard residues; d marks the D form. Peptide text beside a SMILES is read from it. d(hArg(Et2)) = CCN=C(NCC)NCCCC[C@@H](N)C(=O)O; hArg(Et2) = CCN=C(NCC)NCCCC[C@H](N)C(=O)O; dPhe(4-Cl) = N[C@H](Cc1ccc(Cl)cc1)C(=O)O; d2Nal = N[C@H](Cc1ccc2ccccc2c1)C(=O)O; dCit = NC(=O)NCCC[C@@H](N)C(=O)O; d3Pal = N[C@H](Cc1cccnc1)C(=O)O
How the values were obtained:
β-catenin activation = experiment: Immunofluorescence of active β-catenin in HEK293/GnRHR cells; type: cell-based, human; conditions: 1 µM GnRH + 1 µM antagonist, 1 h
Description: In order to evaluate the activation of phospho-proteins and β-catenin by Western blotting and immunofluorescence, 1 × 10^5 HEK293 cells were transiently transfected in a 24-well plate. To this purpose, 500 ng of GnRHR-HA-encoding vector diluted in 2 µL/well Lipofectamine® 2000 Transfection Reagent (Invitrogen) were used, according to the manufacturer’s instructions. Transfected HEK293 cells (HEK293/GnRHR) were cultured for 48 h and maintained over-night in serum-free medium before experiments.
3 × 10^4 HEK293/GnRHR and mock-transfected HEK293 cells (negative control) were plated on gelatine-treated slides. […] As a positive control, cells were treated for 16 h with 100 nM of the selective glycogen synthase kinase 3 (GSK3) inhibitor, CHIR99021 (Sigma-Aldrich), which stabilizes free cytosolic β-catenin [68]. After stimulations, cells were washed in PBS with Ca^2+/Mg^2+ and fixed for 20 min in paraformaldehyde 4%/PBS. Cell monolayers were washed by PBS and permeabilized using 0.1% Triton X-100. Samples were incubated in 4% bovine serum albumin (BSA)/PBS, for 1 h at room temperature (RT), before incubation with a mouse primary antibody targeting β-catenin (#05-665, 1:300 dilution in 4% BSA/PBS; Merck KGaA) overnight at 4 °C. Following washing, cells were then incubated with Cy3-conjugated anti-mouse IgG secondary antibody (#C2181, 1:200 dilution in 4% BSA/PBS; Sigma-Aldrich) for 1 h at RT. Cell monolayers were then stained for 10 min with 4′,6-diamidino-2-phenylindole (DAPI) (Sigma-Aldrich) and washed in PBS before slide treatment by polyvinyl alcohol mounting medium with 1,4-diazabicyclo[2.2.2]octane (DABCO®) (Sigma-Aldrich). Fluorescent signals were detected using the Eclipse Ni-E microscope (Nikon Instruments BV, Amsterdam, The Netherlands).

GnRH receptor (GnRHR) = biological target: T1, GnRH receptor (GnRHR) (Homo sapiens, UniProt P30968); experiment: BRET (CAMYEL) measurement of cAMP accumulation in SH-SY5Y/GnRHR cells; type: cell-based; design: HA (hemagglutinin); expressed in transfected cells
T1 sequence (P30968 1-328): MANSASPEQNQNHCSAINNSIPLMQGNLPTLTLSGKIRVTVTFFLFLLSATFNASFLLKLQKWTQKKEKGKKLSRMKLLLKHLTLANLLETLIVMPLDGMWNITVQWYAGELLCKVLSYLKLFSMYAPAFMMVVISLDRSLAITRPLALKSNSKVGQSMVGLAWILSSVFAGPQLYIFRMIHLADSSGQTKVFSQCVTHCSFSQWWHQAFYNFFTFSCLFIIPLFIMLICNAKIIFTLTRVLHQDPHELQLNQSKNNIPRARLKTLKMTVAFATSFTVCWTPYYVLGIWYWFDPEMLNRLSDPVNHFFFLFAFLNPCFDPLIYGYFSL
Description: Different transfection protocols were followed, depending on the endpoint to be measured. For BRET experiments, 3 × 10^4 cells were transiently transfected using vectors expressing the cAMP-CAMYEL or the aequorin-Ca^2+ BRET biosensor-encoding cDNA [59], as appropriate, together with the GnRHR-HA-encoding vector. Transfections were performed in a 96-well plate using the Metafectene PRO reagent (Biontex, München, Germany), as previously described. […]
cAMP accumulation was measured in cells transiently expressing both the BRET-based cAMP biosensor CAMYEL [64] and GnRHR. […] BRET signals were detected at 475 and 535 nm wavelengths upon the addition of 5 µM Coelenterazine H (NanoLight Technologies). […]
BRET experiments were performed using a CLARIOstar plate reader equipped by a monocromator (BMG Labtech, Ortenberg, Germany), as previously described.
Data were plotted on graphs as means ± standard error of means (SEM). […] Data distributions were analyzed by D’Agostino and Pearson normality tests and inhibition of intracellular Ca^2+ increase by different concentrations of antagonist were compared using two-way analysis of variance (ANOVA), followed by Bonferroni post-test or Kruskal-Wallis and proper post-test. cAMP accumulation was represented as acceptor:donor emission ratio (induced BRET changes) after basal subtraction (untreated cells). […]

SMILES: CC(=O)N[C@H](Cc1ccc2ccccc2c1)C(=O)N[C@H](Cc1ccc(Cl)cc1)C(=O)N[C@H](Cc1cccnc1)C(=O)N[C@@H](CO)C(=O)N[C@@H](Cc1ccc(O)cc1)C(=O)N[C@H](CCCNC(N)=O)C(=O)N[C@@H](CC(C)C)C(=O)N[C@@H](CCCNC(=N)N)C(=O)N1CCC[C@H]1C(=O)N[C@H](C)C(N)=O [Cetrorelix] (Ac-[d2Nal][dPhe(4-Cl)][d3Pal]SY[dCit]LRP[dA]-NH2)
- effect on GnRH-induced active β-catenin staining (β-catenin activation): reduced
- IC50 (GnRH receptor (GnRHR)): 1.56 ± 2.49 nM

SMILES: CCN=C(NCC)NCCCC[C@H](NC(=O)[C@H](CC(C)C)NC(=O)[C@@H](CCCCNC(=NCC)NCC)NC(=O)[C@H](Cc1ccc(O)cc1)NC(=O)[C@H](CO)NC(=O)[C@@H](Cc1cccnc1)NC(=O)[C@@H](Cc1ccc(Cl)cc1)NC(=O)[C@@H](Cc1ccc2ccccc2c1)NC(C)=O)C(=O)N1CCC[C@H]1C(=O)N[C@H](C)C(N)=O [Ganirelix] (Ac-[d2Nal][dPhe(4-Cl)][d3Pal]SY[d(hArg(Et2))]L[hArg(Et2)]P[dA]-NH2; N-terminus and C-terminus assumed)
- effect on GnRH-induced active β-catenin staining (β-catenin activation): reduced
- IC50 (GnRH receptor (GnRHR); read-out: IC50 of inhibition of GnRH-induced cAMP accumulation): 16.6 ± 3.76 nM

Reference: article PMC6888270 (International Journal of Molecular Sciences, 2019)
